Source: US7119076B2, “Preventives or remedies for endometriosis or uterine myoma” (priority 2000, dated 2006)

Tested on: endometriosis model rats
Test: Therapeutic effect in endometriosis model rats (autotransplanted uterine tissue on peritoneum), histology of lesion
Format: in vivo, Sprague-Dawley rats (female)
Details: oral, lesion excised seven days after preparation; for invasion of mast cells in lesion sample: light and electron microscopy; for degree of interstitial proliferative lesion: versus control group
Protocol: Endometriosis model rats were prepared by the method described in Michael W. Vernon et al., FERTILITY AND STERILITY, Vol. 44, No. 5, Nov. 1985. That is, endometriosis model rats were prepared as follows: Sprague-Dawley rats (female) of 8 weeks old were acclimatized for 2 weeks under 12 hours light-dark condition. From each rat, right uterine horn was excised under general anesthesia with sevoflurane and ketamine hydrochloride, and a tissue piece sizing 5 mm×5 mm was prepared therefrom. The tissue piece was subjected to autotransplantation such that the endometrium surface is attached to peritoneum.
From 24 hours after the preparation of the endometriosis model rats, commercially available clarithromycin tablets (trademark “Clarith Tablet 50 for Children” prepared by Taisho Pharmaceutical Co., Ltd) were orally administered to the rats for 3 days. […] Clarithromycin was not administered to control animals. Seven days after the preparation of the model rats, at which the model lesion reached its peak, the peritoneum tissue including the graft up to the abdominal muscle was excised to obtain a lesion sample. From the thus obtained samples, light microscope specimens (hematoxylin-eosin staining, toluidine blue staining) and electron microscope specimens (uranium-lead double staining) were prepared, and the existence of invaded mast cells, which is a symptom of endometriosis, and the degree of interstitial proliferative lesion were observed.

[1] = 10 mg/kg per day for 3 days from 24 hours after model preparation
[2] = 6 mg/kg per day for 3 days from 24 hours after model preparation

Compound	invasion of mast cells in lesion sample [1]	degree of interstitial proliferative lesion [1]	invasion of mast cells in lesion sample [2]	degree of interstitial proliferative lesion [2]
CC[C@H]1OC(=O)[C@H](C)[C@@H](O[C@H]2C[C@@](C)(OC)[C@@H](O)[C@H](C)O2)[C@H](C)[C@@H](O[C@@H]2O[C@H](C)C[C@H](N(C)C)[C@H]2O)[C@](C)(O)C[C@@H](C)CN(C)[C@H](C)[C@@H](O)[C@]1(C)O [azithromycin]	not observed	apparently reduced		
CC[C@H]1OC(=O)[C@H](C)[C@@H](O[C@H]2C[C@@](C)(OC)[C@@H](O)[C@H](C)O2)[C@H](C)[C@@H](O[C@@H]2O[C@H](C)C[C@H](N(C)C)[C@H]2O)[C@](C)(O)C[C@@H](C)/C(=N\OCOCCOC)[C@H](C)[C@@H](O)[C@]1(C)O [roxithromycin]			not observed	apparently reduced
CC[C@H]1OC(=O)[C@H](C)[C@@H](O[C@H]2C[C@@](C)(OC)[C@@H](O)[C@H](C)O2)[C@H](C)[C@@H](O[C@@H]2O[C@H](C)C[C@H](N(C)C)[C@H]2O)[C@](C)(OC)C[C@@H](C)C(=O)[C@H](C)[C@@H](O)[C@]1(C)O [clarithromycin]	not observed	apparently reduced		
